Values after ≈ are worked out from the molar mass of the structure shown.
Experiments:
Acinetobacter baumannii = experiment: Antibacterial activity against Acinetobacter baumannii ATCC 19606 (CO-ADD:GN_034); MIC in CAMBH media using NBS plates, by OD600; conditions: Concentration 32.0 ug.mL-1
Klebsiella pneumoniae = conditions: ATCC 700603, Concentration 32.0 ug.mL-1
Description: Antibacterial activity against Klebsiella pneumoniae MDR ATCC 70063 (CO-ADD:GN_003); MIC in CAMBH media using NBS plates, by OD(600)

Escherichia coli = experiment: Antibacterial activity against Escherichia coli ATCC 25922 (CO-ADD:GN_001); MIC in CAMBH media using NBS plates, by OD(600); conditions: Concentration 32.0 ug.mL-1
Staphylococcus aureus [1] = experiment: Antibacterial activity against Staphylococcus aureus MRSA ATCC 43300 (CO-ADD:GP_020); MIC in CAMBH media, using NBS plates, by OD(600); conditions: Concentration 32.0 ug.mL-1
Pseudomonas aeruginosa = conditions: ATCC 27853, Concentration 32.0 ug.mL-1
Description: Antibacterial activity against Pseudomonas aeruginosa ATCC 27853 (CO-ADD:GN_042); MIC in CAMBH media using NBS plates, by OD(600)

HEK293 = experiment: cells; type: functional, Homo sapiens, ATCC CRL1573; conditions: ASSAY_TEST Inhibition of Cell Viability; detection method Resazurin; Fluorescence (ex560/em590); MEDIA DMEM with 10% FBS; plate type 384well; TC; CORNING #3712; time 18 hr
Staphylococcus aureus [2] = experiment: microbe, parasite or virus in culture; conditions: ATCC 43300, 18 h, ASSAY_TEST Inhibition of Bacterial Growth, detection method Absorption (OD600), MEDIA CAMHB, plate type 384well, NBS, CORNING #3640

Compound | inhibition (Acinetobacter baumannii) | inhibition (Klebsiella pneumoniae) | inhibition (Escherichia coli) | inhibition (Staphylococcus aureus [1]) | inhibition (Pseudomonas aeruginosa) | CC50 (HEK293) | MIC (Staphylococcus aureus [2])
CS(=O)(=O)c1ccc(CNC(=O)c2ncc([N+](=O)[O-])[nH]2)cc1 | Average; N=2 | Average; N=2 | Average; N=2 | Average; N=2 | Average; N=2 |  | 
O=C(O)C(F)(F)F.O=c1nc(N2CCN(CC3CCCCC3)CC2)sc2c([N+](=O)[O-])cc(C(F)(F)F)cc12 |  |  |  |  |  | >50 | 
O=C(NC1CCCCC1)c1ncc([N+](=O)[O-])[nH]1 | Average; N=2 | Average; N=2 | Average; N=2 | Average; N=2 | Average; N=2 |  | 
Cc1cn2cc([N+](=O)[O-])nc2c(=O)n1Cc1ccc(OC(F)(F)F)cc1 |  |  |  |  |  | >100 | 
O=C(c1ncc([N+](=O)[O-])[nH]1)N1CCCC1 | Average; N=2 | Average; N=2 | Average; N=2 | Average; N=2 | Average; N=2 |  | 
O=c1[nH]c(-c2ccc(OC(F)(F)F)cc2)cn2cc([N+](=O)[O-])nc12 |  |  |  |  |  | >100 | 
Cc1ccc(CNC(=O)c2nc([N+](=O)[O-])c[nH]2)cc1 |  |  |  |  |  |  | 32 µg/mL (≈ 123 µM)
Cc1[nH]c(=O)c2nc([N+](=O)[O-])cn2c1C |  |  |  |  |  | >100 | 
NC(=O)c1ncc([N+](=O)[O-])[nH]1 | Average; N=2 | Average; N=2 | Average; N=2 | Average; N=2 | Average; N=2 |  | 
NC(=O)c1nc([N+](=O)[O-])cn1CCO |  |  |  |  |  | >100 | 
COc1nc(C)cn2cc([N+](=O)[O-])nc12 |  |  |  |  |  | >50 | 
CN(CCO)C(=O)c1ncc([N+](=O)[O-])[nH]1 | Average; N=2 | Average; N=2 | Average; N=2 | Average; N=2 | Average; N=2 |  | 
CN(CCOC(=O)c1ncc([N+](=O)[O-])[nH]1)C(=O)c1ncc([N+](=O)[O-])[nH]1 | Average; N=2 | Average; N=2 | Average; N=2 | Average; N=2 | Average; N=2 |  | 
Cc1cn2cc([N+](=O)[O-])nc2c(=O)[nH]1 |  |  |  |  |  | >100 | 
CC(=O)OCCn1c(C)cn2cc([N+](=O)[O-])nc2c1=O |  |  |  |  |  | >100 | 
Cc1cn2cc([N+](=O)[O-])nc2c(OCCO)n1 |  |  |  |  |  | >100 | 
NC(=O)c1nc([N+](=O)[O-])cn1Cc1ccc(F)cc1 | Average; N=2 | Average; N=2 | Average; N=2 | Average; N=2 | Average; N=2 |  | 
Cc1cn2cc([N+](=O)[O-])nc2c(=O)n1CCO |  |  |  |  |  | >100 | 
C[C@H]1COC2(CCN(c3nc(=O)c4cc(C(F)(F)F)cc([N+](=O)[O-])c4s3)CC2)O1 [BTZ-043] |  |  |  |  |  | >100 | 
CN(C)C(=O)c1ncc([N+](=O)[O-])[nH]1 | Average; N=2 | Average; N=2 | Average; N=2 | Average; N=2 | Average; N=2 |  | 
CC(=O)OCCn1c(-c2ccccc2)cn2cc([N+](=O)[O-])nc2c1=O | Average; N=2 | Average; N=2 | Average; N=2 | Average; N=2 | Average; N=2 |  | 
O=C(NO)c1nc([N+](=O)[O-])cn1Cc1ccc(OC(F)(F)F)cc1 |  |  |  |  |  | 36 | 
CN(Cc1ccc(OC(F)F)cc1)C(=O)c1ncc([N+](=O)[O-])[nH]1 |  |  |  |  |  |  | 16 µg/mL (≈ 49 µM)
NNC(=O)c1nc([N+](=O)[O-])cn1Cc1ccc(OC(F)(F)F)cc1 |  |  |  |  |  | >100 | 
O=C(NCc1ccccn1)c1ncc([N+](=O)[O-])[nH]1 | Average; N=2 | Average; N=2 | Average; N=2 | Average; N=2 | Average; N=2 |  | 
NC(=O)c1nc([N+](=O)[O-])cn1Cc1ccccn1 | Average; N=2 | Average; N=2 | Average; N=2 | Average; N=2 | Average; N=2 |  | 

Compound | inhibition (Acinetobacter baumannii) | inhibition (Klebsiella pneumoniae) | inhibition (Escherichia coli) | inhibition (Staphylococcus aureus [1]) | inhibition (Pseudomonas aeruginosa) | CC50 (HEK293) | MIC (Staphylococcus aureus [2])
O=C(NCc1cccc(OC(F)(F)F)c1)c1ncc([N+](=O)[O-])[nH]1 |  |  |  |  |  |  | 16 µg/mL (≈ 48.5 µM)
O=[N+]([O-])c1cn2ccnc(OCCc3ccc(OC(F)(F)F)cc3)c2n1 |  |  |  |  |  | >100 | 
O=C(NCc1ccccc1)c1nc([N+](=O)[O-])c[nH]1 | Average; N=2 | Average; N=2 | Average; N=2 | Average; N=2 | Average; N=2 |  | 
Cc1ccc(CCn2cc([N+](=O)[O-])nc2C(N)=O)cc1 | Average; N=2 | Average; N=2 | Average; N=2 | Average; N=2 | Average; N=2 |  | 
O=C(NCc1ccc(OC(F)(F)F)cc1)c1ncc([N+](=O)[O-])[nH]1 | Average; N=2 | Average; N=2 | Average; N=2 | Average; N=2 | Average; N=2 |  | 
Cc1ccc(CCNC(=O)c2ncc([N+](=O)[O-])[nH]2)cc1 |  |  |  |  |  |  | 32 µg/mL (≈ 117 µM)
Cc1nc(OCc2ccc(OC(F)(F)F)cc2)c2nc([N+](=O)[O-])cn2c1C |  |  |  |  |  | >100 | 
O=C(c1ncc([N+](=O)[O-])[nH]1)N1CCOCC1 | Average; N=2 | Average; N=2 | Average; N=2 | Average; N=2 | Average; N=2 |  | 
NC(=O)c1nc([N+](=O)[O-])cn1Cc1cccc(OC(F)(F)F)c1 | Average; N=2 | Average; N=2 | Average; N=2 | Average; N=2 | Average; N=2 |  | 
CNC(=O)c1ncc([N+](=O)[O-])[nH]1 | Average; N=2 | Average; N=2 | Average; N=2 | Average; N=2 | Average; N=2 |  | 
CCOC(=O)c1nc([N+](=O)[O-])c[nH]1 |  |  |  |  |  | >100 | 
[N-]=[N+]=NCCOc1nc(-c2ccccc2)cn2cc([N+](=O)[O-])nc12 | Average; N=2 | Average; N=2 | Average; N=2 | Average; N=2 | Average; N=2 |  | 
Cc1c(C)n2cc([N+](=O)[O-])nc2c(=O)n1Cc1ccc(OC(F)(F)F)cc1 |  |  |  |  |  | >100 | 
CC(=O)OCCOc1nc(C)cn2cc([N+](=O)[O-])nc12 |  |  |  |  |  | >100 | 
Nc1c[nH]c(C(=O)NCc2ccc(F)cc2)n1 | Average; N=2 | Average; N=2 | Average; N=2 | Average; N=2 | Average; N=2 |  | 
O=C(NC1CC1)c1ncc([N+](=O)[O-])[nH]1 | Average; N=2 | Average; N=2 | Average; N=2 | Average; N=2 | Average; N=2 |  | 
O=C(NCCO)c1ncc([N+](=O)[O-])[nH]1 | Average; N=2 | Average; N=2 | Average; N=2 | Average; N=2 | Average; N=2 |  | 
CCOC(=O)c1nc([N+](=O)[O-])cn1Cc1ccc(OC(F)(F)F)cc1 |  |  |  |  |  | >100 | 
NC(=O)c1nc([N+](=O)[O-])cn1CC1CCCCC1 | Average; N=2 | Average; N=2 | Average; N=2 | Average; N=2 | Average; N=2 |  | 
CC(=O)OCCn1cc([N+](=O)[O-])nc1C(N)=O | Average; N=2 | Average; N=2 | Average; N=2 | Average; N=2 | Average; N=2 |  | 
CN(C)C(=O)c1nc([N+](=O)[O-])cn1Cc1ccc(OC(F)(F)F)cc1 |  |  |  |  |  | >100 | 
CC(NC(=O)c1ncc([N+](=O)[O-])[nH]1)c1ccc(F)cc1 (stereo unspecified) | Average; N=2 | Average; N=2 | Average; N=2 | Average; N=2 | Average; N=2 |  | 
CNC(=O)c1nc([N+](=O)[O-])cn1Cc1ccc(OC(F)(F)F)cc1 |  |  |  |  |  | >100 | 
Cc1cn2cc([N+](=O)[O-])nc2c(OCc2ccc(OC(F)(F)F)cc2)n1 |  |  |  |  |  | >100 | 
NC(=O)c1nc([N+](=O)[O-])cn1CCc1ccc(OC(F)(F)F)cc1 | Average; N=2 | Average; N=2 | Average; N=2 | Average; N=2 | Average; N=2 |  | 
NC(=O)c1nc([N+](=O)[O-])cn1Cc1ccc(C(F)(F)F)cc1 | Average; N=2 | Average; N=2 | Average; N=2 | Average; N=2 | Average; N=2 |  | 

Reference: ChEMBL document CHEMBL4513134, “CO-ADD screening of University of Queensland (Australia) compounds” (2021)
